We go through 24 compounds from ChEMBL document CHEMBL2412974, “Dimeric and trimeric triazole based molecules as a new class of Hsp90 molecular chaperone inhibitors” (Eur J Med Chem, 2013).

What is called IC50 is the concentration that gives 50% inhibition. Usually Kd stands for the free concentration of one partner at which half of the binding sites on the other are occupied at equilibrium, for simple one-to-one binding.

For assay [1], the target named is T1, Heat shock protein HSP 90-beta (Homo sapiens, UniProt P08238). Kind of assay: Inhibition of human Hsp90 ATPase activity assessed as inhibition of ATP hydrolysis after 60 mins by fluorimetric analysis.
T1 sequence (P08238 whole entry): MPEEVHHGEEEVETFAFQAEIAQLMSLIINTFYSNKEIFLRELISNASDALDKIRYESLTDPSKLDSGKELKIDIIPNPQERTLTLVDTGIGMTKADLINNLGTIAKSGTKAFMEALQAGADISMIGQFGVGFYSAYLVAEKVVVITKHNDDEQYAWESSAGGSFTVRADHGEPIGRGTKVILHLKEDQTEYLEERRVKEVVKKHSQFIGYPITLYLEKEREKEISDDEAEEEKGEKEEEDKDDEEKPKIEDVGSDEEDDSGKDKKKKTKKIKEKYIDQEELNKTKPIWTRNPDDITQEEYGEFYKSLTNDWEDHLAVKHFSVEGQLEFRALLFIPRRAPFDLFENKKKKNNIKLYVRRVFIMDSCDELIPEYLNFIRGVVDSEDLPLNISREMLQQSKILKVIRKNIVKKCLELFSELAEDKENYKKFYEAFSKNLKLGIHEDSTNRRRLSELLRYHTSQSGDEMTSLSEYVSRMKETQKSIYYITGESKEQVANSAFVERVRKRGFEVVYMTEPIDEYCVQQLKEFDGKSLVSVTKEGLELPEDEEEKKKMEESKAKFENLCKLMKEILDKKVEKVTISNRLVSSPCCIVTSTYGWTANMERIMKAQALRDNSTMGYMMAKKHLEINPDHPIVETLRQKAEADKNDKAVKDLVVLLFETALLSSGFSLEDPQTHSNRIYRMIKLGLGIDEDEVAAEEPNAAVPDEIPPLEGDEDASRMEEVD
In assay [2] the target is T1, Heat shock protein HSP 90-beta. The assay can be described thus: Binding affinity to human Hsp90 by surface plasmon resonance analysis. For orientation: SPR reads the build-up and loss of mass on a sensor chip optically.
The target is the same in assay [3]. The assay can be described thus: Inhibition of human Hsp90 chaperone activity assessed as citrate synthase thermal-induced aggregation at 0.3 uM by fluorimetric analysis.

Calls of active or inactive are those of the source. The calls are words filed in the database; no cut-off is given here.

`c1ccc2cc(Cn3cc(CCCCc4cn(Cc5ccc6ccccc6c5)nn4)nn3)ccc2c1`: in assay [1], the IC50 worked out at 52000 nM and the inhibition entry is “Dose-dependent effect”. For the same compound, in assay [2] (read-out: Kd), the dissociation constant (Kd) is 84 nM. For the same compound, the inhibition result in assay [3] was “Active”. As to `c1ccc(-c2ccc(Cn3cc(-c4ccc(-c5cn(Cc6ccc(-c7ccccc7)cc6)nn5)cc4)nn3)cc2)cc1`, in assay [2], the dissociation constant (Kd) result was “Not Active”. On to `c1ccc2c(Cn3cc(CN(Cc4cn(Cc5cccc6ccccc56)nn4)Cc4cn(Cc5cccc6ccccc56)nn4)nn3)cccc2c1`, for which the equilibrium dissociation constant (Kd) in assay [2] (read-out: Kd) is 201 nM. As for `c1ccc2c(Cn3cc(CCCCc4cn(Cc5cccc6ccccc56)nn4)nn3)cccc2c1`, the dissociation constant Kd in assay [2] (read-out: Kd) was found to be 191 nM. On the same count and under the same terms, next, `c1ccc(-c2ccc(Cn3cc(COCc4cn(Cc5ccc(-c6ccccc6)cc5)nn4)nn3)cc2)cc1`: 237 nM. Turning to `O=C1c2ccccc2C(=O)N1CCCn1cc(COCc2cn(CCCN3C(=O)c4ccccc4C3=O)nn2)nn1`, in assay [1], the half-inhibitory concentration (IC50) was 7000 nM and the inhibition entry was “Dose-dependent effect”. Besides, the dissociation constant (Kd) in assay [2] (read-out: Kd) came to 3.5 nM. Also, the inhibition result in assay [3] was “Active”. For `c1ccc2cc(Cn3cc(CN(Cc4cn(Cc5ccc6ccccc6c5)nn4)Cc4cn(Cc5ccc6ccccc6c5)nn4)nn3)ccc2c1`, in that order: 16000 nM, “Dose-dependent effect”, 55 nM and “Active”. Take `c1ccc2cc(Cn3cc(-c4ccc(-c5cn(Cc6ccc7ccccc7c6)nn5)cc4)nn3)ccc2c1`: the Kd entry in assay [2] is “Not Active”. Consider `O=C1c2ccccc2C(=O)N1CCCn1cc(CN(Cc2cn(CCCN3C(=O)c4ccccc4C3=O)nn2)Cc2cn(CCCN3C(=O)c4ccccc4C3=O)nn2)nn1`, for which the dissociation constant (Kd) in assay [2] (read-out: Kd) turned out to be 89 nM. With `O=C(c1ccccc1)c1ccc(Cn2cc(COCc3cn(Cc4ccc(C(=O)c5ccccc5)cc4)nn3)nn2)cc1`, in assay [1], the IC50 worked out at 7000 nM and the inhibition result is “Dose-dependent effect”. Further, the Kd in assay [2] (read-out: Kd) was 3.6 nM. The inhibition entry in assay [3] was “Active”. As for `O=C(c1ccccc1)c1ccc(Cn2cc(CCCCc3cn(Cc4ccc(C(=O)c5ccccc5)cc4)nn3)nn2)cc1`, the Kd result in assay [2] is “Not Active”.

As for `c1ccc(-c2ccc(Cn3cc(CN(Cc4cn(Cc5ccc(-c6ccccc6)cc5)nn4)Cc4cn(Cc5ccc(-c6ccccc6)cc5)nn4)nn3)cc2)cc1`, the equilibrium dissociation constant (Kd) in assay [2] (read-out: Kd) was determined as 72 nM. For `O=C1c2ccccc2C(=O)c2cc(Cn3cc(CN(Cc4cn(Cc5ccc6c(c5)C(=O)c5ccccc5C6=O)nn4)Cc4cn(Cc5ccc6c(c5)C(=O)c5ccccc5C6=O)nn4)nn3)ccc21`, the dissociation constant Kd in assay [2] (read-out: Kd) was 107 nM. For the compound `c1ccc2c(Cn3cc(-c4ccc(-c5cn(Cc6cccc7ccccc67)nn5)cc4)nn3)cccc2c1`, the Kd result in assay [2] is reported as “Not Active”.

Regarding `O=C1c2ccccc2C(=O)c2cc(Cn3cc(-c4ccc(-c5cn(Cc6ccc7c(c6)C(=O)c6ccccc6C7=O)nn5)cc4)nn3)ccc21`, the Kd entry in assay [2] is “Not Active”. Consider `O=C(c1ccccc1)c1ccc(Cn2cc(CN(Cc3cn(Cc4ccc(C(=O)c5ccccc5)cc4)nn3)Cc3cn(Cc4ccc(C(=O)c5ccccc5)cc4)nn3)nn2)cc1`, for which, in assay [2] (read-out: Kd), the dissociation constant Kd amounted to 151 nM.

Consider `O=C1c2ccccc2C(=O)c2cc(Cn3cc(COCc4cn(Cc5ccc6c(c5)C(=O)c5ccccc5C6=O)nn4)nn3)ccc21`, for which, in assay [1], the IC50 turned out to be 7000 nM and the inhibition entry was “Dose-dependent effect”. Besides, in assay [2] (read-out: Kd), the equilibrium dissociation constant (Kd) amounted to 2.8 nM. Moreover, the inhibition result in assay [3] is “Active”. As to `c1ccc(-c2ccc(Cn3cc(CCCCc4cn(Cc5ccc(-c6ccccc6)cc5)nn4)nn3)cc2)cc1`, the equilibrium dissociation constant (Kd) entry in assay [2] is “Not Active”. Still for that read-out and setting: next, `O=C1c2ccccc2C(=O)N1CCCn1cc(-c2ccc(-c3cn(CCCN4C(=O)c5ccccc5C4=O)nn3)cc2)nn1`: “Not Active”; `O=C1c2ccccc2C(=O)c2cc(Cn3cc(CCCCc4cn(Cc5ccc6c(c5)C(=O)c5ccccc5C6=O)nn4)nn3)ccc21`: “Not Active”. On the same count and under the same terms, next, `O=C(c1ccccc1)c1ccc(Cn2cc(-c3ccc(-c4cn(Cc5ccc(C(=O)c6ccccc6)cc5)nn4)cc3)nn2)cc1`: “Not Active”. With `c1ccc2c(Cn3cc(COCc4cn(Cc5cccc6ccccc56)nn4)nn3)cccc2c1`, the Kd in assay [2] (read-out: Kd) is 10.3 nM. As to `c1ccc2cc(Cn3cc(COCc4cn(Cc5ccc6ccccc6c5)nn4)nn3)ccc2c1`, the Kd result in assay [2] was “Not Active”. On to `O=C1c2ccccc2C(=O)N1CCCn1cc(CCCCc2cn(CCCN3C(=O)c4ccccc4C3=O)nn2)nn1`, for which, in assay [2], the Kd entry is “Not Active”.
